Reference: patent US8377949B2, “Quinazolinedione chymase inhibitors” (Boehringer Ingelheim International GmbH, priority 2007, dated 2013)

Biological target: T1, Chymase (Homo sapiens, UniProt P23946)
T1 sequence (P23946 22-247): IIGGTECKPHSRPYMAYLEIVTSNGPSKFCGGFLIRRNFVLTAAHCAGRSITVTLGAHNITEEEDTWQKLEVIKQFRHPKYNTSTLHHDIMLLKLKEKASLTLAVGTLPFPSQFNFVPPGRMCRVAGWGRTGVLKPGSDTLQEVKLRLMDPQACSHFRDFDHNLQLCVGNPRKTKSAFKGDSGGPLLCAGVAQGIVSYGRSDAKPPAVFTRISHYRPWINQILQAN
Assay: In vitro Assay for Inhibition of Chymase
Type: biochemical
Details: 500 pM chymase, 100 nM rhodamine 110 peptide substrate, 1 hour at 28° C., fluorescence
Procedure: In vitro Assay for Inhibition of Chymase
Chymase assays were performed in a total volume of 15 μL in Corning black opaque 384-well microtiter plates with a non-binding surface (Coming, N.Y.). The assay buffer was comprised of 20 mM Tris HCl pH 8.0, 50 mM NaCl, 0.01% CHAPS. The test compounds were serially diluted 3-fold with neat DMSO in a 96-well polypropylene plate from a 10 mM DMSO stock to give the 10 point dose response curve. 3 μL of the resulting DMSO solution were transferred to a 384-well polypropylene plate in duplicate, and 37 μL of assay buffer was added. Chymase was added to the assay plate in 3 uL of assay buffer followed by 2 uL of the appropriate compound dilution using a PlateMate Plus (Matrix Technologies Corp., Hudson, N.H.). The reaction was initiated by the addition of 10 uL rhodamine 110, bis-(succinoyl-L-alanyl-L-alanyl-L-prolyl-L-phenylalanylamide) (American Peptides, Sunnyvale, Calif.) in assay buffer containing 150 μM tris(2-carboxyethyl)phosphine (TCEP, Pierce Chemical, Rockford, Ill.) using a Multidrop (Thermo Electron Corp., Waltham, Mass.). Final assay concentrations were 500 pM chymase, 100 nM substrate, 100 μM TCEP, and 1% DMSO. The plates were incubated at 28° C. and 80% humidity for 1 hour, at which time the fluorescence was read on a Viewlux 1430 Microplate Imager (Perkin Elmer Life Sciences, Boston, Mass.) with 485 nm excitation, 530 nm emission, and a fluorescein dichroic mirror. The percentage of control values were calculated relative to assay blanks containing complete reaction minus chymase and a 100% control containing assay buffer with 1% DMSO in place of compound. IC50 values were obtained by fitting the data using XLFit4 (IDBS Software).

## Cc1cc(C)c2c(Cn3c(=O)n(C4(CC(=O)O)CCCCC4)c(=O)c4ccccc43)nsc2c1 [{1-[1-(4,6-Dimethyl-1,2-benzisothiazol-3-ylmethyl)-2,4-dioxo-1,4-dihydro-2H-quinazolin-3-yl]-cyclohexyl}-acetic acid]
  IC50: 4 nM
